From patent US20120245135A1, “Gallium Complexes, Pharmaceutical Compositions And Methods Of Use” (Genta Incorporated, priority 2011, published 2012)

Experiment: Oral bioavailability of gallium complexes in dogs (plasma gallium by ICP-MS)
Settings: for blood levels of gallium reached (peak blood concentration of gallium) / maximum blood concentration of gallium achieved: 2.5 mg/kg; for blood levels of gallium reached by oral controls: oral positive control (all three dogs) and oral negative control (highest value, one animal), Beagle dogs
Description: Pharmacokinetics, oral bioavailability and bioequivalency of gallium-ligand complexes according to the invention were determined in dogs following a single oral gavage administration of the compounds as a suspension/solution in water in fasted male Beagle dogs at 2.5 mg/kg dog body weight or following administration of a single total dose of 30 mg in a capsule formulation (for histidine and carnosine only). The following complexes were selected for testing: gallium picolinate, gallium kojate, gallium (+)-mandalate, gallium (−)-mandalate, gallium tryptophanate, gallium acetyl piperidinate, gallium prolinate both neutral and ionic; and the capsules prepared from histidine and carnosine. Each compound was studied in groups of three fasted animals. Nine serial blood samples were collected from each animal by venipuncture of a jugular vein at the following time points post-dose: 0 (predose), 0.25, 0.5, 0.75, 1, 2, 4, 8, and 16 hours post-dose. Blood samples were collected into chilled tubes containing heparin as the anticoagulant.
Oral bioavailability of the test gallium complex was evaluated in each of the three animals in each test group.

[1] = single oral gavage, suspension/solution in water, fasted male Beagle dogs

Question: For `OCC1=CC2=[O+][Ga-3]34([O]C2=CO1)([O]C1=COC(CO)=CC1=[O+]3)[O]C1=COC(CO)=CC1=[O+]4` [gallium kojate], which “blood levels of gallium reached (peak blood concentration of gallium)” value (male, Beagle, dog, in vivo, po) is on record?
Answer: at least 1,000 ng/ml

Question: With `O=C1[O][Ga-3]23([O]C(=O)[C@H](c4ccccc4)[OH+]2)([O]C(=O)[C@H](c2ccccc2)[OH+]3)[OH+]C1c1ccccc1` (stereo partly drawn) [gallium (+)-mandalate] as the compound, how does the “blood levels of gallium reached (peak blood concentration of gallium)” value (male, Beagle, dog, in vivo, po) read?
Answer: at least 1,000 ng/ml

Question: For `O=C1[O][Ga-3]23([O]C(=O)[C@@H](c4ccccc4)[OH+]2)([O]C(=O)[C@@H](c2ccccc2)[OH+]3)[OH+]C1c1ccccc1` (stereo partly drawn) [gallium (−)-mandalate], which “blood levels of gallium reached (peak blood concentration of gallium)” value (male, Beagle, dog, in vivo, po) is on record?
Answer: at least 1,000 ng/ml

Question: Which “blood levels of gallium reached by oral controls” value does the source give for `Cc1occc(=O)c1[O-].Cc1occc(=O)c1[O-].Cc1occc(=O)c1[O-].[Ga+3]` [gallium maltolate, reference compound] here?
Answer: ≥ 1,000 ng/ml

Question: With `N[C@@H](Cc1c[nH]c2ccccc12)C(=O)[O-].N[C@@H](Cc1c[nH]c2ccccc12)C(=O)[O-].N[C@@H](Cc1c[nH]c2ccccc12)C(=O)[O-].[Ga+3]` [gallium tryptophanate complex] as the compound, how does the “maximum blood concentration of gallium achieved” value (“maximum blood concentration” below) [1] read?
Answer: about 500 ng/ml

Question: Which “maximum blood concentration” value [1] does the source give for `O=C([O-])C1CCCN1.O=C([O-])C1CCCN1.O=C([O-])C1CCCN1.[Ga+3]` (stereo not drawn) [gallium prolinate neutral complex] here?
Answer: about 300 ng/ml

Question: For `O=C1[O][Ga-3]23([O]C(=O)c4cccc[n+]42)([O]C(=O)c2cccc[n+]23)[n+]2ccccc21` [gallium picolinate], which “blood levels of gallium reached (peak blood concentration of gallium)” value (male, Beagle, dog, in vivo, po) is on record?
Answer: at least 1,000 ng/ml

Question: Which “maximum blood concentration” value (male, Beagle, dog, in vivo, po) does the source give for `CC1=[O+][Ga-3]23([O]C(=O)C4CCCCN14)([O]C(=O)C1CCCCN1C(C)=[O+]2)[O]C(=O)C1CCCCN1C(C)=[O+]3` (stereo not drawn) [gallium acetyl piperidinate complex] here?
Answer: about 200 ng/ml

Question: For `O=[N+]([O-])[O-].O=[N+]([O-])[O-].O=[N+]([O-])[O-].[Ga+3]` [gallium nitrate, reference compound], which “blood levels of gallium reached by oral controls” value is on record?
Answer: ≤ 700 ng/mL
